Measurements reported in patent publication US20180028480A1, “METHODS OF REDUCING OR PREVENTING OXIDATIVE MODIFICATION OF MEMBRANE POLYUNSATURATED FATTY ACIDS” (Amarin Pharmaceuticals Ireland Limited, priority 2015, published 2018).

Assays:
[1] = tested on: lipid vesicles enriched with PUFAs and cholesterol; assay: Glucose-induced membrane lipid peroxidation (LOOH) in DLPC/cholesterol multilamellar vesicles (Example 4); assay type: biochemical; conditions: for effect on LOOH formation / lipid peroxidation: 72- and 96-hour time points, 1:30 drug-to-phospholipid mole ratio (FIG. 3)
Experimental: Vitamin E (α-tocopherol) was also purchased from Sigma-Aldrich and prepared in ethanol at 1.0 mM (ε32 3.06×10^4 M^−1 cm^−1 at 294 nm) just prior to experimental use. […] All test compounds were further diluted in ethanol or aqueous buffer as needed. Glucose was prepared in saline buffer (0.5 mM HEPES, 154 mM NaCl, pH 7.3) at 11.0 mM (200 mg/dL). CHOD-iodide color reagent (stock) was prepared, with slight modification, as described by from El-Saadani et al. (J. […] Prior to experimental use, the CHOD reagent was activated by adding 24 μM ethylenediaminetetraacetic acid (EDTA), 20 μM butylated hydroxytoluene (BHT), and 0.2% Triton X-100. Multilamellar vesicles (MLVs) were prepared as binary mixtures of DLPC (1.0 or 2.5 mg total phospholipid per sample) and cholesterol at a fixed cholesterol-to-phospholipid (C/P) mole ratio of 0.6:1. Component lipids (in chloroform) were transferred to 13×100 mm borosilicate culture tubes and combined with vehicle (ethanol) or an equal volume of fatty acid, vitamin E, or ATM stock solutions, each adjusted to achieve desired treatment concentrations. Samples were shell-dried under nitrogen gas and placed under vacuum for 1 h to remove residual solvent. […] Lipid suspensions were then vortexed for 3 min at ambient temperature to form MLVs. All MLV samples were subjected to time-dependent autoxidation by incubating at 37° C. in an uncovered, shaking water bath. This method allows lipid peroxidation to occur gradually without requiring the use of exogenous initiators. Small aliquots (5-100 μL) of each sample were removed, immediately following MLV preparation (0 hour) and after exposing samples to oxidative conditions for 72 or 96 hour, and combined with 1.0 mL of activated CHOD-iodide color reagent. Aliquot volume was reduced with each successive time point to ensure that spectrophotometric readings were within the optimal adsorption range. Test samples were covered and incubated in darkness at room temperature for at least 4 hr. Sample absorbances were then measured against a CHOD blank at 365 nm using a Beckman DU-640 spectrophotometer. The CHOD colorimetric assay is based on the oxidation of iodide (I^−) by lipid hydroperoxide (LOOH) to form triiodide (I3^−), the quantity of which is directly proportional to the amount of LOOH present in the lipid sample. The molar absorptivity (c) of I3^− is 2.46×10^4 M^−1 cm^−1 at 365 nm. […] The concentration of glucose selected was consistent with previous experimental studies of hyperglycemia under controlled laboratory conditions or observed in well-defined animal models of Type II diabetes following a glucose challenge. […] Values in FIG. 1 are mean±S.D. (N=6). […]

unfractionated LDL = assay: Copper-induced oxidation of unfractionated LDL, TBARS (Example 6); assay type: biochemical, human; conditions: 1.0 μM to 10.0 μM
Experimental: All test compounds were further diluted in ethanol or aqueous buffer as needed. Venous blood was collected from healthy volunteers into vacutainer tubes containing sodium EDTA. […] Plasma and lipoprotein fractions were maintained at 4° C. and protected from excessive exposure to light. Prior to oxidation experiments, EDTA was removed from the lipoprotein fraction using PD-10 desalting columns (GE Healthcare, Piscataway N.J.). After equilibration of the column with phosphate buffered saline (PBS), 2.5 mL of the lipoprotein fraction was loaded on the column and the flow-through discarded. The lipoprotein was then eluted with 3 mL of PBS. The LDL fractions were further diluted with PBS to obtain a 100 μg/mL apoB100 concentration. […] Sample TBARS concentrations were determined spectrophotometrically by measuring sample absorbances against a standard curve derived from the hydrolysis of 1,1,3,3-tetramethoxypropane. […] Differences between groups were analyzed using the two-tailed, Student's t-test (for comparisons between only two groups) or ANOVA followed by Dunnett or Student-Newman-Keuls multiple comparisons post-hoc analysis (for comparisons between three or more groups).

Cc1c(C)c2c(c(C)c1O)CC[C@@](C)(CCC[C@H](C)CCC[C@H](C)CCCC(C)C)O2 [vitamin E, α-tocopherol, reference compound]
effect on LOOH formation / lipid peroxidation [1]: no significant effect on lipid peroxidation | LDL oxidation (unfractionated LDL): did not inhibit LDL oxidation at any concentration

CC/C=C\C/C=C\C/C=C\C/C=C\C/C=C\CCCC(=O)O [EPA, cis-5,8,11,14,17-Eicosapentaenoic acid]
effect on LOOH formation / lipid peroxidation [1]: significantly inhibited LOOH formation | antioxidant effect (LOOH formation), separate treatments ([1]; each at 1.0 μM, glucose 200 mg/dL, 96 hours): separate and potent antioxidant effects | LDL oxidation (unfractionated LDL): generally inhibit LDL oxidation
